Data as given in publication PMC9860728, “Identification of New N-methyl-piperazine Chalcones as Dual MAO-B/AChE Inhibitors” (Pharmaceuticals, 2023).

How the values were obtained:
AChE [1] = biological target: T1, AChE (Electrophorus electricus, UniProt O42275); assay: AChE inhibition assay (Ellman method, ATCI); assay type: biochemical; settings: mean ± SD
Procedure: (§1) For measuring cholinesterase (ChE) activity, the Ellman method was employed with a slight modification. The AChE and BchE with ~0.02 U/mL were reacted with 0.5 mM ATCI and BTCI, respectively, followed by addition of 0.5 mM DTNB. […] In the inhibition assay, the enzyme and the compound were preincubated in reaction buffer for 15 min, followed by adding substrates and DTNB.

MAO-B [2] = biological target: T2, MAO-B (Homo sapiens, UniProt P27338); assay: Reversibility test for MAO-B using dialysis method; assay type: biochemical; settings: for Residual activity of MAO-B after dialysis: after dialysis for 6 h, inhibitor at ~2 × IC50
T2 construct: purchased Sigma Aldrich
T2 sequence (P27338 1-520): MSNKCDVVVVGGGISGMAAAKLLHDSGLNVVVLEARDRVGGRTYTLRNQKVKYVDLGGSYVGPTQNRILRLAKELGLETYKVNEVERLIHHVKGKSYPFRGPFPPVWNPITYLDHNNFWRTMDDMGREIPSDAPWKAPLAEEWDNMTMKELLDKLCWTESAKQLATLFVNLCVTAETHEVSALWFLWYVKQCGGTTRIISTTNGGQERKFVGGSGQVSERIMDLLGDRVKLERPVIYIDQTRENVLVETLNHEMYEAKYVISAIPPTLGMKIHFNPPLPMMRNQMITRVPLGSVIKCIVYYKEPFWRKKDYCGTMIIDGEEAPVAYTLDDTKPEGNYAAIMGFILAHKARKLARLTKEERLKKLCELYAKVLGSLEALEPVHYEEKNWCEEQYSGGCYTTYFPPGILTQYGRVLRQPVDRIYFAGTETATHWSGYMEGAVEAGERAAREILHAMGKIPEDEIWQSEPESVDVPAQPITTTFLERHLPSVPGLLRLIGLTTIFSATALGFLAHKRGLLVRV
Procedure: Reversibility of the compounds for MAO-B was measured using the dialysis method. […] The reaction mixture was placed in a dialysis tube (DiaEasyTM Dialyzer (800 µL) MWCO 6–8 kDa, Biovision, CA, USA) and dialyzed for 6 h. After that, the 0.3 mM of benzylamine was added into the reaction mixture for measuring enzyme activity. The relative activity to the control (without inhibitors) before and after dialysis was calculated, respectively.

MAO-A = biological target: T3, MAO-A (Homo sapiens, UniProt P21397); assay: MAO-A enzyme inhibition assay (kynuramine substrate); assay type: biochemical; settings: mean ± SD
T3 construct: purchased Sigma Aldrich
T3 sequence (P21397 1-527): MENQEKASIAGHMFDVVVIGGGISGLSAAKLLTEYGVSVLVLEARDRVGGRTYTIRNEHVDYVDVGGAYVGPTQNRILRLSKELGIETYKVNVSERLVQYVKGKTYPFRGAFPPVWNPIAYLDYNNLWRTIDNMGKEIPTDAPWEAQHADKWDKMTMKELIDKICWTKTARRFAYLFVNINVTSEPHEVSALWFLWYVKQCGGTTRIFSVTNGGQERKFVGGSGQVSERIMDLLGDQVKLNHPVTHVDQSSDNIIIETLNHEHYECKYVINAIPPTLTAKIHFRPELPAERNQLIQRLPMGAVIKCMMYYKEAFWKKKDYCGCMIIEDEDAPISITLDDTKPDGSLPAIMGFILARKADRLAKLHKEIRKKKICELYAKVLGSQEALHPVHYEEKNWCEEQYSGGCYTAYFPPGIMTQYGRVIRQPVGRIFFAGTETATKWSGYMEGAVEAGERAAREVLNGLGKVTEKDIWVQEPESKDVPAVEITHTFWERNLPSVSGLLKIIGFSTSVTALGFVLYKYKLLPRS
Procedure: MAO assays were performed as described previously, i.e., ~0.09 U/mL of MAO-A and MAO-B were reacted with 0.06 mM kynuramine and 0.3 mM benzylamine, respectively, in 50 mM sodium phosphate (pH 7.2). […] For inhibition assay, the compounds were dissolved in DMSO and added into the reaction mixture. The final concentration of DMSO in the reaction mixture was less than 1% to avoid solvent disturbance.

BChE = BChE (Equus caballus, UniProt P81908); assay: biochemical
Procedure: as §1

[3] = Cytotoxicity MTT assay on normal Vero cells; settings: African green monkey
Procedure: The reference compound staurosporine was purchased from Sigma-Aldrich (Saint Louis, MO, USA). […] CellTiter 96® Non-Radioactive Cell Proliferation Assay (MTT) reagent was purchased from Promega (Cat# G4000). The normal Vero cell line was purchased from ATCC. Normal Vero cells were cultured with EMEM medium plus 10% FBS. In total, 100 µg/mL penicillin and 100 µg/mL streptomycin were added to the culture media.
The test compounds (100 nL) and staurosporine (25 nL) were delivered from the source plate to the wells of 384-well cell culture plates by Echo 550 Liquid Handler. […] MTT Dye Solution (8 µL) was added to each well, and the plates were incubated at 37 °C in a CO2 incubator for 6 h. After incubation, the formazan was produced in the cells. Solubilization/Stop Solution (30 µL) was added to each well and the plates were incubated for another 1 h at 37 °C in a CO2 incubator to dissolve the formazan crystals. […] The IC50 curves were plotted, and the IC50 values were calculated using the GraphPad Prism 4 program based on a sigmoidal dose–response equation.

AChE [4] = biological target: T1, AChE; assay: AChE inhibition kinetics (Lineweaver–Burk and secondary plots); assay type: biochemical
AChE [5] = biological target: T1, AChE; settings: read-out: Ki AChE; morpholine-based chalcones; cited from earlier work
MAO-B [6] = biological target: T2, MAO-B; settings: MAO-B selectivity over MAO-A; cited from earlier work
[7] = read-out: Residual activity of MAO-B before dialysis

T1 sequence (O42275 24-633): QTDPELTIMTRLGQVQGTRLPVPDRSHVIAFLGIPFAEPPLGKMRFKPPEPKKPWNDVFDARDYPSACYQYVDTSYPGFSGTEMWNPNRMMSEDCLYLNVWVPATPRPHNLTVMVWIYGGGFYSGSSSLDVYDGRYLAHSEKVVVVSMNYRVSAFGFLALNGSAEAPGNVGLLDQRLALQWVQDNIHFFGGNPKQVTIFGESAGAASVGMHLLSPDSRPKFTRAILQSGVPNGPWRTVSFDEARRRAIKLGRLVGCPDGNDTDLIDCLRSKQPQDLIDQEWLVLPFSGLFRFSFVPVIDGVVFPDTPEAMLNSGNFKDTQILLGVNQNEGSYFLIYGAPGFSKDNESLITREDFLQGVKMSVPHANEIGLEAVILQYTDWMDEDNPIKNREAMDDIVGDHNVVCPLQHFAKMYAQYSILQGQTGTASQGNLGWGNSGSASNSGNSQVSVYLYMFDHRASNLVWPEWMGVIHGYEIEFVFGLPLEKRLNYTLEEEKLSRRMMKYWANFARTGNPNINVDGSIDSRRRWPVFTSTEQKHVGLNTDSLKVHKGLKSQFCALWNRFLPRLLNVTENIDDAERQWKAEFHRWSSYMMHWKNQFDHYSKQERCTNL
BChE, sequence (P81908 whole entry): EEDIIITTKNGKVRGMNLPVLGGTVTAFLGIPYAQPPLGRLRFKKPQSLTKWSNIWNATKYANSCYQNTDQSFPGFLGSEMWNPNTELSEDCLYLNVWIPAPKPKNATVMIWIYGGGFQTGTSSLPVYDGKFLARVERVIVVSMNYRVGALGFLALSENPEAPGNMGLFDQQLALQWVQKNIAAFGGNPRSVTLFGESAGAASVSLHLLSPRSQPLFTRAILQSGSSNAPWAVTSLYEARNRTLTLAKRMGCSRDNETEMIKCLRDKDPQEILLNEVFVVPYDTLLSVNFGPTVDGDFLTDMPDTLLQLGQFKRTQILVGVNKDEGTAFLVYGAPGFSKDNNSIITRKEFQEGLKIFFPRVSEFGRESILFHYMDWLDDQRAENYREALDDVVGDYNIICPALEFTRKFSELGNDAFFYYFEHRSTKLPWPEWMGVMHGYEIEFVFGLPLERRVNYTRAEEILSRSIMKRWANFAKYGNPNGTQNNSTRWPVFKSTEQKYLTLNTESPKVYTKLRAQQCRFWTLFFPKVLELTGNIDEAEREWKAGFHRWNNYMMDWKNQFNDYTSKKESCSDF

CN1CCN(c2ccc(C(=O)/C=C/c3ccc(F)c(C(F)(F)F)c3)cc2)CC1 [Compound 2k, (E)-3-(4-fluoro-3-(trifluoromethyl)phenyl)-1-(4-(4-methylpiperazin-1-yl)phenyl)prop-2-en-1-one]
remaining activity at 10 µM (AChE [1]; 10 μM compound, read-out: Residual Activities at 10 μM (%) AChE): 46.9 ± 2.58% | Residual activity of MAO-B after dialysis (MAO-B [2]): 80.26% | Reversibility of MAO-B inhibition (MAO-B [2]; dialysis method): reversible | remaining activity at 1.16 µM (MAO-B [2]; [7]): 14.6% | remaining activity at 10 µM (MAO-A; 10 μM compound, read-out: Residual Activities at 10 μM (%) MAO-A): 96.4 ± 3.03% | IC50 (MAO-A): > 40 µM | remaining activity at 10 µM (BChE; read-out: Residual Activities at 10 μM (%) BChE): 61.8 ± 5.54% | IC50 at 72 h [3]: 19.9 µM | Inhibition pattern for AChE (AChE [4]): mixed type

CN1CCN(c2ccc(C(=O)/C=C/c3cc(Br)ccc3F)cc2)CC1 [Compound 2n, (E)-3-(5-bromo-2-fluorophenyl)-1-(4-(4-methylpiperazin-1-yl)phenyl)prop-2-en-1-one]
IC50 (AChE [1]): 4.32 ± 0.39 µM | Residual Activities at 10 μM (%) BChE (BChE; 10 μM compound, mean ± SD): 43.21 ± 2.88% | IC50 at 72 h [3]: 62 µM | Inhibition pattern for AChE (AChE [4]): mixed type

NCCNC(=O)c1ccc(Cl)cn1 [Lazabemide, reference compound]
Residual activity of MAO-B after dialysis (MAO-B [2]): 98.78% | remaining activity at 0.22 µM (MAO-B [2]; [7]): 20.5%

CN(C)c1ccc(/C=C/C(=O)c2ccc(N3CCOCC3)cc2)cc1 [MO5]
Ki (AChE [5]): 2.52 µM

O=C(/C=C/c1ccc(Br)cc1)c1ccc(N2CCOCC2)cc1 [MO9]
Ki (AChE [5]): 7.04 µM

O=C(/C=C/c1ccc(F)cc1)c1ccc(N2CCNCC2)cc1 [PC10]
SI (MAO) (MAO-B [6]): 48.3

O=C(/C=C/c1ccc(C(F)(F)F)cc1)c1ccc(N2CCNCC2)cc1 [PC11]
SI (MAO) (MAO-B [6]): 49.2

C#CCN(C)Cc1ccccc1 [Pargyline, reference compound]
Residual activity of MAO-B after dialysis (MAO-B [2]): 24.88%
